Data set [1] relates to β-catenin/TCF. Description: TCF/LEF reporter (TOP-Luciferase) assay in Wnt-dependent HCT116. The class given is cell-based, human. The source says:
(§1) See, for example: • Polakis P. Drugging Wnt signalling in cancer. EMBO J. 2012 May 22; 31(12):2737-46; Bialkowska A B, Yang V W. High-throughput screening strategies for targeted identification of therapeutic compounds in colorectal cancer. Future Oncol. 2012 March; 8(3):259-72; • Huang S M, Mishina Y M, Liu S, Cheung A, Stegmeier F, Michaud G A, Charlat O, Wiellette E, Zhang Y, Wiessner S. Hild M, Shi X, Wilson C J, Mickanin C. Myer V, Fazal A, Tomlinson R, Serluca F, Shao W, Cheng H, Shultz M, Rau C, Schirle M, Schlegl J, Ghidelli S, Fawell S, Lu C, Curtis D, Kirschner M W, Lengauer C. Finan P M, Tallarico J A, Bouwmeester T, Porter J A, Bauer A, Cong F. Tankyrase inhibition stabilizes axin and antagonizes Wnt signalling. Nature. 2009 Oct. 1; 461(7264):614-20; • Chen B, Dodge M E, Tang W, Lu J, Ma Z, Fan C W, Wei S, Hao W, Kilgore J, Williams N S, Roth M G, Amatruda J F. Chen C. Lum L. Small molecule-mediated disruption of Wnt-dependent signaling in tissue regeneration and cancer. Nat Chem. Biol. 2009 February; 5(2): 100-7; • Thorne C A, Hanson A J, Schneider J, Tahinci E, Orton D, Cselenyi C S, Jernigan K K, Meyers K C, Hang B I, Waterson A G, Kim K, Melancon B, Ghidu V P, Sulikowski G A, LaFleur B, Salic A, Lee L A, Miller D M 3rd, Lee E. Small-molecule inhibition of Wnt signaling through activation of casein kinase 1α. […]

Data set [2] relates to β-catenin. The data set is described as follows: Wnt-induced β-catenin accumulation. The data set is classed as cell-based.
Excerpt: as §1

Data set [3] relates to β-catenin. Description: β-catenin protein level and phosphorylation in HCT116 cells. The data set is classed as cell-based, human.
Excerpt: as §1

Data set [4] concerns β-catenin/TCF-dependent genes. Description: Wnt/β-catenin target gene expression (real-time quantitative PCR, protein level). The class given is cell-based. The method, then: A. mRNA expression was measured by Real-time quantitative PCR.
as §1, with “1α. Nat Chem. Biol. 2010 November; 6(11):829-36; • Wei W, Chua M S. Grepper S, So S. Small molecule antagonists of Tcf4/beta-catenin complex inhibit the growth of HCC cells in vitro and in vivo. Int J Cancer. 2010 May 15; 126(10):2426-36; • Lepourcelet M, Chen Y N, France D S, Wang H, Crews P, Petersen F, Bruseo C, Wood A W, Shivdasani R A. Small-molecule antagonists of the oncogenic Tcf/beta-catenin protein complex. Cancer Cell. 2004 January; 5(1):91-102; • Grossmann T N, Yeh J T, Bowman B R, Chu Q, Moellering R E, Verdine G L. Inhibition of oncogenic Wnt signaling through direct targeting of β-catenin. Proc Natl Acad Sci USA. 2012 Oct. 15.” for “1α.”

Data set [5] concerns beta-catenin target gene promoters. The data set is described as follows: ChIP-RT-PCR of β-catenin recruitment to target promoters in HCT116 cells. The data set is classed as cell-based, human.
Excerpt: as §1

Data set [6] relates to Wnt/β-catenin-dependent cancer cells. The data set is described as follows: Cytotoxicity in Wnt/β-catenin-dependent cancer cells. The class given is cell-based.
Excerpt: as §1

For data set [7], the system named is Wnt/β-catenin-independent cancer cells. The data set is described as follows: Cytotoxicity in Wnt/β-catenin-independent cancer cells. The class given is cell-based.
Excerpt: as §1

For data set [8], the system named is normal cells. The data set is described as follows: Cytotoxicity in normal cells. The class given is cell-based.
Excerpt: as §1

In data set [9] the test system is Wnt/β-catenin-dependent cancer cells. Description: Colony formation. The class given is cell-based. The note with it: a number of Wnt/β-catenin-dependent cancer cells.
Excerpt: as §1

Data set [10] has as its system β-catenin. Description: Western blotting and immunoprecipitation of β-catenin forms. The class given is cell-based.
Excerpt: as §1, with “1α. Nat Chem. Biol. 2010 November; 6(11):829-36; • Wei W, Chua M S. Grepper S, So S. Small molecule antagonists of Tcf4/beta-catenin complex inhibit the growth of HCC cells in vitro and in vivo. Int J Cancer. 2010 May 15; 126(10):2426-36; • Lepourcelet M, Chen Y N, France D S, Wang H, Crews P, Petersen F, Bruseo C, Wood A W, Shivdasani R A. Small-molecule antagonists of the oncogenic Tcf/beta-catenin protein complex. Cancer Cell. 2004 January; 5(1):91-102; • Grossmann T N, Yeh J T, Bowman B R, Chu Q, Moellering R E, Verdine G L. Inhibition of oncogenic Wnt signaling through direct targeting of β-catenin. Proc Natl Acad Sci USA. 2012 Oct. 15.” for “1α.”
For orientation: Immunoblotting shows a protein as a band on a membrane.

Data set [11] has as its system HCT116 colon cancer cells. The data set is described as follows: Xenograft study, HCT116. The class given is in vivo. The following applies: HCT116 xenograft in mice, 20 mg/kg daily i.p. The method, then:
(§2) A, HCT116 colon cancer cells; B, HT115 colon cancer cells; and C, H23 human lung cancer cells. 20 mg/kg was injected daily via i.p.
as §1, with “cancer.” for “cancer. Nat Chem. Biol. 2009 February; 5(2): 100-7; • Thorne C A, Hanson A J, Schneider J, Tahinci E, Orton D, Cselenyi C S, Jernigan K K, Meyers K C, Hang B I, Waterson A G, Kim K, Melancon B, Ghidu V P, Sulikowski G A, LaFleur B, Salic A, Lee L A, Miller D M 3rd, Lee E. Small-molecule inhibition of Wnt signaling through activation of casein kinase 1α.”

Data set [12] has as its system HT115 colon cancer cells. The data set is described as follows: Xenograft study, HT115. The class given is in vivo. The note with it: HT115 xenograft in mice, 20 mg/kg daily i.p. The protocol:
as §2
as §1, with “cancer.” for “cancer. Nat Chem. Biol. 2009 February; 5(2): 100-7; • Thorne C A, Hanson A J, Schneider J, Tahinci E, Orton D, Cselenyi C S, Jernigan K K, Meyers K C, Hang B I, Waterson A G, Kim K, Melancon B, Ghidu V P, Sulikowski G A, LaFleur B, Salic A, Lee L A, Miller D M 3rd, Lee E. Small-molecule inhibition of Wnt signaling through activation of casein kinase 1α.”

The subject of data set [13] is H23 human lung cancer cells. The data set is described as follows: Xenograft study, H23. The class given is in vivo. The following applies: H23 xenograft in mice, 20 mg/kg daily i.p. The method, then: as §2
as §1, with “cancer.” for “cancer. Nat Chem. Biol. 2009 February; 5(2): 100-7; • Thorne C A, Hanson A J, Schneider J, Tahinci E, Orton D, Cselenyi C S, Jernigan K K, Meyers K C, Hang B I, Waterson A G, Kim K, Melancon B, Ghidu V P, Sulikowski G A, LaFleur B, Salic A, Lee L A, Miller D M 3rd, Lee E. Small-molecule inhibition of Wnt signaling through activation of casein kinase 1α.”

Data set [14] has as its system H460 human lung cancer cells. Description: Wnt/b-catenin-independent tumor growth, H460. The data set is classed as in vivo. The following applies: Wnt/b-catenin-independent H460 tumors in mice.
Excerpt: as §1

Data set [15] deals with mammary tumor. Description: Spontaneous mouse model of breast cancer (MMTV-Wnt1). The following applies: MMTV-Wnt1 tumor mice. The data set is classed as in vivo. The source says:
Raj L, Ide T, Gurkar A U, Foley M, Schenone M, Li X, Tolliday N J, Golub T R, Carr S A, Shamji A F, Stern A M, Mandinova A, Schreiber S L, Lee S W. Selective killing of cancer cells by a small molecule targeting the stress response to ROS. Nature. 2011 Jul. 13; 475(7355):231-4; • Huang S, Li Y, Chen Y, Podsypanina K, Chamorro M, Olshen A B, Desai K V, Tann A, Petersen D, Green J E, Varmus H E. Changes in gene expression during the development of mammary tumors in MMTV-Wnt-1 transgenic mice. Genome Biol. 2005; 6(10):R84.

The structures appear in SMILES notation.

As to `COC(=O)c1cccc(NS(=O)(=O)c2ccc(C)cc2)c1` [OC0021, methyl 3-{[(4-methylphenyl)sulfonyl]amino}benzoate], the TCF/LEF reporter activity result in [1] is “inhibits the TCF/LEF reporter activity”. The “transcriptional activity of β-catenin/TCF” value in data set [1] (human colon cancer cells HCT116 with beta-catenin mutation) is given as “inhibits the transcriptional activity of β-catenin/TCF in a dose dependent manner”. The “Wnt-induced β-catenin accumulation” value in [2] was “inhibits Wnt-induced β-catenin accumulation”. Further, the beta-catenin protein levels entry in data set [3] (HCT116 cells) is “decreases beta-catenin protein levels”. In addition, the “β-catenin degradation / phosphorylation at T41/S45” value in data set [3] (HCT116 colon cancer cells) is “promotes β-catenin degradation via increased β-catenin phosphorylation at T41/S45”. Further, the “protein level of endogenous β-catenin/TCF-dependent genes, Cyclin D1 and c-Myc” value in data set [4] was “down regulates the protein level”. The “stability of Axin1 and Axin2” value in [4] is “enhances stability of Axin1 and Axin2”. In addition, the “Wnt/β-catenin-mediated gene transcription (mRNA expression of Myc, cyclin D1, Axin1 and 2)” value in data set [4] (Real-time quantitative PCR) was “modulates Wnt/β-catenin-mediated gene transcription”. Moreover, the “beta-catenin binding its target gene promoters” value in [5] is reported as “inhibits beta-catenin binding its target gene promoters”. Further, the results for the cytotoxic effect entry in data set [6], in data set [7] and in [8] were “cytotoxic effect”, “no significant cytotoxic” and “no significant cytotoxic”, respectively. The colony formation result in [9] was “inhibits colony formation”. Also, in data set [10], the “ABC (Active form of b-catenin)” value is “supresses ABC”. Besides, the “expression of oncogene Myc target gene” value in data set [10] is listed as “inhibits the expression of oncogene Myc target gene”. The “phosphorylated β-catenins (phospho-β-catenin-33/37/41; -41/45)” value in [10] is given as “increases phosphorylated β-catenins”. For the same compound, the anti-tumor activity result in data set [11], in data set [12] and in [13] was “anti-tumor activity” throughout. Besides, the tumor growth entry in [14] is given as “does not affect”. Also, the “growth of mammary tumor” value in data set [15] is given as “inhibits the growth of mammary tumor”.
